# In patent US20240174638A1, “HETEROARYL DERIVATIVES AS APELIN RECEPTOR AGONISTS” (RESEARCH TRIANGLE INSTITUTE, priority 2021, published 2024):
# Read-outs that look alike come from different tables or passages of the source.
# Assays:
# [1] = system: BLEO-induced lung fibrosis in male C57BL/6 mice; assay: Chronic (21-day) bleomycin-induced lung fibrosis model, prophylactic (Px) and therapeutic (Tx) arms; assay type: in vivo, mouse; conditions: for 21-day survival rate: BLEO-instilled mice
# [2] = Plasma and tissue pharmacokinetics following a single oral administration in male SD rat; assay type: in vivo
# Experimental: Assay: Plasma and Tissue Pharmacokinetics of Example 22 Following a Single Oral Administration in Male SD Rat
# Preparation of PO (10 mg/kg, 10 mL/kg) Dosing
# 1 mg/mL solution of 0.5% (w/v) CMC-Na, 0.1% (v/v) Tween 80 in Milli-Q Water.
# Dissolved 29.68 mg of EXAMPLE 22 in 29.637 mL of 0.5% (w/v) CMC-Na, 0.1% (v/v). Tween 80 in Milli-Q Water with vortexing and sonicate to obtain a solution.
# (§1) The desired serial concentrations of working solutions were achieved by diluting stock solution of analyte with 50% acetonitrile in water solution. 5 μL of working solutions (10, 20, 50, 100, 500, 1000, 5000, 10000 ng/mL) were added to 50 μL of the blank SD Rat plasma to achieve calibration standards of 1˜1000 ng/mL (1, 2, 5, 10, 50, 100, 500, 1000 ng/mL) in a total volume of 55 μL. Four quality control samples at 2 ng/mL, 5 ng/mL, 50 ng/mL and 800 ng/mL for plasma were prepared independently of those used for the calibration curves. These QC samples were prepared on the day of analysis in the same way as calibration standards.
# 55 μL standards, 55 μL QC samples and 55 μL unknown samples (50 μL plasma with 5 μL blank solution) were added to 200 μL of acetonitrile containing IS mixture for precipitating protein respectively. Then the samples were vortexed for 30 s. After centrifugation at 4 degree Celsius, 3900 rpm for 15 min, the supernatant was diluted 3 times with water. 20 μL of diluted supernatant was injected into the LC/MS/MS system for quantitative analysis.
# as §1, with “Rat tissue (lung, brain, kidney, muscle/skeletal, spleen, heart and skin) homogenous” for “Rat plasma”, “for tissue” for “for plasma”
# 50 μL standards, 50 μL QC samples and 50 μL unknown samples (50 μL Tissue with 5 μL blank solution) were added to 200 μL of acetonitrile containing IS mixture for precipitating protein respectively. Then the samples were vortexed for 30 s. After centrifugation at 4 degree Celsius, 3900 rpm for 15 min, the supernatant was diluted 3 times with water. 50 μL of heart diluted supernatant and 20 μL of other tissue diluted supernatant was injected into the LC/MS/MS system for quantitative analysis.
# Human plasma protein = conditions: 6 h, 1 μM
# Mouse plasma protein = conditions: 6 h, 1 μM
# Rat plasma protein = conditions: 6 h, 1 μM
# [3] = system: Escherichia coli WP2 uvrA (pKM101)
# in vitro [4] = conditions: mouse, pH 7.4
# in vitro [5] = conditions: rat, pH 7.4
# [6] = relative to Vehicle-treated BLEO-instilled controls
compound,measurement,setting,value
"O=C(O)C[C@H](CCN1CCCC(F)(F)C1)NC(=O)c1cc(-c2ccccc2C(F)(F)F)n(-c2nccs2)n1 [Example 22, (3S)-5-(3,3-difluoropiperidin-1-yl)-3-{[1-(1,3-thiazol-2-yl)-5-[2-(trifluoromethyl)phenyl]-1H-pyrazol-3-yl]formamido}pentanoic acid]",composite Tissue Collagen Fraction (TCF),"[1]; 15 mpk/day Px EXAMPLE 22, Vehicle 5.58±0.34%",4.51±0.31%
same,21-day survival rate,[1]; 15 mpk Px EXAMPLE 22 (p.o. BID),91%
same,21-day survival rate,[1]; 30 mpk Px EXAMPLE 22 (p.o. BID),91%
same,21-day survival rate,[1]; 60 mpk Px EXAMPLE 22 (p.o. BID),92%
same,21-day survival rate,"[1]; Tx EXAMPLE 22 60 mpk (p.o. BID, from 5 days post-BLEO)",100%
same,ΔBW,"[1]; D0-D21, relative to Vehicle-treated BLEO-instilled controls",Neither EXAMPLE 22 nor PIRF affected
same,"end-point readouts for fibrosis, overall",[1]; overall conclusion of the study,positive impact on one or more end-point readouts
same,LW indexed to tibia length (LW:TL),[1]; [6],Neither EXAMPLE 22 nor PIRF affected
same,endpoint lung OH-P content,[1]; [6],Neither EXAMPLE 22 nor PIRF affected
same,endpoint lung weight (LW),[1]; [6],Neither EXAMPLE 22 nor PIRF affected
same,final BW,[1]; [6],Neither EXAMPLE 22 nor PIRF affected
same,serial BW,[1]; [6],Neither EXAMPLE 22 nor PIRF affected
same,"4 h Conc., Brain (mean)",[2]; 4 h post dose,BLQ
same,"24 h Conc., Brain (mean)",[2]; 24 h post dose,BLQ
same,"24 h Conc., Heart (mean)",[2]; 24 h post dose,BLQ
same,"24 h Conc., Muscle (mean)",[2]; 24 h post dose,BLQ
same,"24 h Conc., Skin (mean)",[2]; 24 h post dose,BLQ
same,"24 h Conc., Spleen (mean)",[2]; 24 h post dose,BLQ
same,concentration at 4 h,"[2]; heart, 10 mg/kg, 4 h post dose, read-out: 4 h Conc., Heart (mean)",28.8 ng/g
same,Kp at 4 h,"[2]; heart, 10 mg/kg, 4 h post dose, read-out: 4 h Tissue:Plasma Ratio, Heart",0.28
same,Kp at 24 h,"[2]; kidney (to plasma), 10 mg/kg, 24 h post dose, read-out: 24 h Tissue:Plasma Ratio, Kidney",3.47
same,concentration at 4 h,"[2]; kidney, 10 mg/kg, 4 h post dose, read-out: 4 h Conc., Kidney (mean)",305 ng/g
same,Kp at 4 h,"[2]; kidney, 10 mg/kg, 4 h post dose, read-out: 4 h Tissue:Plasma Ratio, Kidney",3.11
same,concentration at 24 h,"[2]; kidney, 10 mg/kg, 24 h post dose, read-out: 24 h Conc., Kidney (mean)",22.9 ng/g
same,concentration at 4 h,"[2]; lung, 10 mg/kg, 4 h post dose, read-out: 4 h Conc., Lung (mean)",40 ng/g
same,Kp at 4 h,"[2]; lung, 10 mg/kg, 4 h post dose, read-out: 4 h Tissue:Plasma Ratio, Lung",0.39
same,concentration at 4 h,"[2]; muscle (skeletal), 10 mg/kg, 4 h post dose, read-out: 4 h Conc., Muscle (mean)",7.3 ng/g
same,Kp at 4 h,"[2]; muscle (skeletal), 10 mg/kg, 4 h post dose, read-out: 4 h Tissue:Plasma Ratio, Muscle",0.07
same,concentration at 4 h,"[2]; plasma, 10 mg/kg, 4 h post dose, read-out: 4 h Conc., Plasma (mean)",102 ng/mL
same,concentration at 24 h,"[2]; plasma, 10 mg/kg, 24 h post dose, read-out: 24 h Conc., Plasma (mean)",6.6 ng/mL
same,concentration at 4 h,"[2]; skin, 10 mg/kg, 4 h post dose, read-out: 4 h Conc., Skin (mean)",19.3 ng/g
same,Kp at 4 h,"[2]; skin, 10 mg/kg, 4 h post dose, read-out: 4 h Tissue:Plasma Ratio, Skin",0.19
same,concentration at 4 h,"[2]; spleen, 10 mg/kg, 4 h post dose, read-out: 4 h Conc., Spleen (mean)",14 ng/g
same,Kp at 4 h,"[2]; spleen, 10 mg/kg, 4 h post dose, read-out: 4 h Tissue:Plasma Ratio, Spleen",0.14
same,% Protein Bound Rep 1,Human plasma protein,36.79%
same,% Protein Bound Rep 2,Human plasma protein,90.21%
same,% Protein Bound Rep 3,Human plasma protein,87.89%
same,Buffer Concentration Rep 1,Human plasma protein,80.7 nM
same,Buffer Concentration Rep 2,Human plasma protein,70.2 nM
same,Buffer Concentration Rep 3,Human plasma protein,81.2 nM
same,Mean % Protein Bound,Human plasma protein,88.29%
same,Plasma Concentration Rep 1,Human plasma protein,611.0 nM
same,Plasma Concentration Rep 2,Human plasma protein,717.1 nM
same,Plasma Concentration Rep 3,Human plasma protein,670.6 nM
same,% Protein Bound Rep 1,Mouse plasma protein,92.07%
same,% Protein Bound Rep 2,Mouse plasma protein,90.96%
same,% Protein Bound Rep 3,Mouse plasma protein,91.91%
same,Buffer Concentration Rep 1,Mouse plasma protein,67.1 nM
same,Buffer Concentration Rep 2,Mouse plasma protein,79.3 nM
same,Buffer Concentration Rep 3,Mouse plasma protein,67.6 nM
same,Mean % Protein Bound,Mouse plasma protein,91.60%
same,Plasma Concentration Rep 1,Mouse plasma protein,846.3 nM
same,Plasma Concentration Rep 2,Mouse plasma protein,877.0 nM
same,Plasma Concentration Rep 3,Mouse plasma protein,835.8 nM
same,% Protein Bound Rep 1,Rat plasma protein,91.63%
same,% Protein Bound Rep 2,Rat plasma protein,90.98%
same,% Protein Bound Rep 3,Rat plasma protein,92.73%
same,Buffer Concentration Rep 1,Rat plasma protein,49.3 nM
same,Buffer Concentration Rep 2,Rat plasma protein,62.3 nM
same,Buffer Concentration Rep 3,Rat plasma protein,53.6 nM
same,Mean % Protein Bound,Rat plasma protein,91.78%
same,Plasma Concentration Rep 1,Rat plasma protein,588.6 nM
same,Plasma Concentration Rep 2,Rat plasma protein,690.6 nM
same,Plasma Concentration Rep 3,Rat plasma protein,737.4 nM
same,Cytotoxicity Code,[3],N
same,cytotoxicity to tester strain,[3],No cytotoxicity was observed
same,dose related increase of revertant colonies,[3],No dose related increase
same,increase in mean number of revertant colonies vs negative/solvent control,[3]; Escherichia coli,< 2 fold
same,"recovery at 6 h, 1 μM",in vitro [4],92.4%
same,"recovery at 6 h, 1 μM",in vitro [5],72.7%
